Data set [1] is described as follows: In vitro peptide stability in 10% rodent brain homogenate. The format is in vitro ADME, rat. To be noted: 10% brain homogenate, 37° C. The protocol: For the peptide stability assay in vitro, both 15merTNP and peptide analogue MP2 were incubated separately with fresh 10% rodent brain homogenate to model degradation in tissues. In order to create a physiological dose of peptide in the in vitro assay, both radioactive (^3H-labelled; hot) and non-radioactive (cold) peptides were combined in a set ratio. Cold peptide was added at a dose of […] per ml of 10% brain homogenate. Hot peptide was added at a dose of 250 μCi per ml 10% brain homogenate. Following the addition of hot and cold peptide; the homogenate was vortexed and incubated for different time points. The reaction was stopped by adding complete protease inhibitor cocktail and the samples analysed.
The biological stability of the peptides was evaluated by incubating them (90 nmol) in fresh 10% rodent brain homogenate for different times at 37° C. The amount of intact peptide was estimated by running the supernatant of the homogenate on a 16% Tricine gel to separate peptide that had not had its amino acid sequence degraded. FIG. 3 illustrates the relative stability of 15merTNP and peptide analogue MP2 over two hours run on a 16% Tricine gel from time 0-120 min with samples run in duplicate. The values correspond to the in vitro half-life, which is defined as the time needed for 50% degradation of the peptide.

On the set-up of data set [2]: species or system mice (129×1 strain). To be noted: mouse, in vivo. The protocol: Another essential requirement of drug development is the ability of the peptide to cross the BBB and impact on targeted tissue. To measure the ability of 15merTNP and peptide analogue MP2 to cross the BBB, intracerebroventricular (i.c.v) delivery was assessed. The use of i.c.v injections on animal models allows for high doses to be delivered straight to the ventricular spaces where it can cross the parenchyma layer to the brain matter.
For i.c.v injections, control mice (129×1 strain) were anesthetized with intraperitoneal ketamine/xylazine at a dose of 10 ml/kg and then administered with 200 μg of either peptide (90 nmol). Both radioactive (^3H-labelled; hot) and non-radioactive (cold) was used to allow physiological doses of peptide to be delivered.
To determine whether the peptides had effectively penetrated into the brain parenchyma, a capillary depletion experiment was performed. After 25 min post injection the animal was sacrificed and the brain removed. This was homogenized and centrifuged for 10 min at 13000 rpm at 4° C. resulting in a supernatant containing predominately radioactivity from the cortex and a pellet with radioactivity from the capillaries and endothelium. A comparison of radioactivity in each sample was conducted to assess percentage of peptide movement into the cortex. The amount of radioactivity in the capillary pellet of mice that were perfused and not perfused with saline solution was compared to determine the percentage of peptide bound to the luminal surface of the capillaries and sequestered by brain endothelial cells.
A detailed necropsy was performed on each animal following perfusion to thoroughly assess peptide movement throughout peripheral organs, central nervous tissue and blood. […] Thus the concentration of labelled tritium could be measured per mass of sample and using this and the known ratio of non-labelled peptide present, the concentration of total peptide could be determined.
The pharmacokinetic profile of peptide analogue MP2 over four time points, post i.c.v injection into the CNS was determined. […]

For data set [3], the target named is T1, human Aβ1-42 (Homo sapiens, UniProt P05067).
T1 construct: The effect of MP2 on H2O2 production by human Aβ1-42 was determined in triplicate
To be noted: DCF fluorescence assay, 200 nM human Aβ1-42; earlier work PCT/AU02/01754; cited from earlier work.

Another data set concerns M17 Neuroblastoma cells. As to the kind of experiment: MTS cell viability assay, cell death induced by human Aβ1-42 (40 μM). To be noted: for reduction of cell death associated with human Aβ1-42: Aβ1-42 40 μM. The format is cell-based. Here is the method: M17 Neuroblastoma cells were seeded in a 48 well plate at a density of 50,000 cells per well. The plate was incubated for 24 hours at 37° C. in media (OPTI-MEM) containing 10% FCS. The next day the cells were treated with human Aβ1-42 (40 μM) in the presence or absence of the peptides 15merTNP or peptide analogue MP2 (FIG. 2). The peptides were provided at concentrations ranging from 20-400 μM prepared in Neuro basal media containing B27 supplement without antioxidants. Following incubation (4 days at 37° C.), cell viability was assessed using the CellTiter 96® AQueous One Solution cell proliferation assay (MTS; Promega, Wis., USA) as per manufactures instructions. Briefly, 200 μl of MTS reagent (1/10 dilution) was added directly to the culture wells and the plate incubated for 3 hours at 37° C. Following incubation, 150 μl of the solution was transferred to a 96 well plate and the absorbance is determined spectrophotometrically at 490 nm.
Similar to the MTT assay, the MTS assay is a colorimetric method for determining the number of viable cells in proliferation or cytotoxicity assays. The principle of the MTS assay is the same as the MTT assay, except for the tetrazolium compound that is bio-reduced by the mitochondria of the cells, forming a coloured formazan product that is soluble (rather than insoluble for the MTT assay) in tissue culture medium. This conversion is accomplished by NADPH or NADH produced by dehydrogenase enzymes in metabolically active cells: Berridge M V. And Tan A. S. (1993) Characterisation of the cellular reduction of 3-(4,5-dimethylthiazol-2-yl)-2,5-diphenyltetrazolium bromide (MTT): Subcellular localisation, substrate dependence and involvement of mitochondrial electron transport in MTT reduction. Arch. Biochem. Biophys. 303, 474-82.
The effect of human Aβ1-42 (40 μM) on cell viability was determined in triplicate in each of the 10 MTS assays (i.e. n=30) performed in this study. All data are presented as means±SEM.
The effect of peptide analogue MP2 to protect against human Aβ42-induced toxicity was then determined using the MTS assay in triplicate in two separate experiments for all doses (i.e. n=6), unless otherwise specified. The effectiveness of MP2 was compared against the 15merTNP.
For orientation: Formazan colour is commonly taken as a measure of viable cells.

Data set [4] deals with T1, human Aβ1-42. As to the kind of experiment: DCF fluorescence assay of H2O2 production (SOD-like activity) by human Aβ1-42. The format is biochemical. To be noted: 200 nM peptide, Aβ1-42 200 nM. The protocol: The three candidate peptides (15merTNP, 6merPLP and 6merMTM) were examined to determine whether they could attenuate Aβ's SOD-like activity in vitro. A DCF fluorescence assay was used to assess the efficacy of these peptides on altering the production of physiological (brain) concentrations (200 nM) of human Aβ1-42.
Aβ species were prepared and the assay run as described previously (i.e. Aβ1-42 at 200 nM and Copper and Dopamine concentrations remain unchanged). Peptide analogue MP2 (SEQ ID NO:2) was added to Aβ1-42+Cu solutions at ratios ranging from 0.005:1 to 10.0:1 (i.e. a ration of 0.005:1 would contain 1 nM of respective peptide). The peptide was dissolved in PBS pH7.5. The effect of MP2 on H2O2 production by human Aβ1-42 was determined in triplicate in three separate experiments (i.e. n=9) for doses ranging from 100 to 2000 nM (FIG. 1). These were compared against the level of H2O2 produced by human Aβ1-42 [test peptide analogue MP2+positive control peptide 15merTNP; three experiments done in triplicate, […]]. All data are presented as means±SEM.
For all assays run, the 15merTNP peptide (SEQ ID NO: 3), was included as a positive control for the assay and for comparing its activity with that of the modelled peptide analogue MP2. The effect of 15merTNP (200 nM) on H2O2 production by human Aβ1-42, was determined in triplicate in each of the 12 DCF assays (i.e. n=36) performed in this study.

A further data set relates to human Aβ42. As to the kind of experiment: MTS cell viability assay of MP2 analogues, cells treated with human Aβ42 (20 μM). To be noted: peptide 400 μM. The format is cell-based. Here is the method: FIG. 7 illustrates the effect of various peptide analogues of the peptide analogue of SEQ ID NO:2 on cell viability associated with human Aβ1-42. Cells were treated with human Aβ42 peptide (20 μM) in the absence or presence of increasing doses of MP2, MP4, MP5 or MP6 (n=6, for each peptide). Cell viability was assessed by the MTS assay.
Cells were treated with human Aβ42 peptide (20 μM) in the absence or presence of increasing doses of MP2, MP4, MP5 or MP6 (n=6, for each peptide). Cell viability was assessed by the MTS assay.

The next data set has as its target Aβ (Homo sapiens, UniProt P05067). As to the kind of experiment: Copper-induced Aβ oligomer generation (SDS-PAGE, WO2 immunoblot). The format is biochemical. To be noted: Aβ 5 uM, Cu+2 25 μM, 0-1000 μM peptide, 37 C, 24 hours; vs reverse peptide control. The protocol:
Incubation of Aβ with copper generates cross-linked oligomeric species (Atwood et al., 2000: Cell Mol Biol, 46: 777-783; Atwood et al., 2004: Biochemistry, 43: 560-568). In this experiment, Aβ (5 uM) is incubated with Cu+2 (25 μM) and 0-1000 μM of the modified peptides at 37 C for 24 hours. After the incubation period, 20 ng is loaded onto an SDS-PAGE gel and immunoblotted with WO2 antibody. Compared to the reverse peptide control, all the modified peptides inhibited the generation of Aβ oligomers at various concentration.

Square brackets hold non-standard residues; d marks the D form.

Aβ, sequence (P05067 672-713 limits assumed): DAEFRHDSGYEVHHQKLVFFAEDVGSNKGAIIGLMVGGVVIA
T1 sequence (P05067 672-713): as the sequence (P05067 672-713 limits assumed) above

As a reminder, the half-life is the time in which the quantity being followed falls by half. Take “H-TNPNRRNRTPQMLKR-OH [15merTNP, Thr-Asn-Pro-Asn-Arg-Arg-Asn-Arg-Thr-Pro-Gln-Met-Leu-Lys-Arg, reference compound]”: the “Stability in rat brain homogenate (in vitro half-life)” value in data set [1] is reported as <45 min. Besides, the half-life at 2.5 mmol per ml in data set [1] (rat, fresh 10% brain homogenate) is < 45 min. For the same substance, in data set [2], the “crossing of the blood brain barrier” value is given as “poorly”. Further, the “ability to modify Aβ1-42's SOD-like activity” value at human Aβ1-42 [3] is recorded as “possessed the ability to modify Aβ1-42's SOD-like activity”. In addition, the “reduction of cell death associated with human Aβ1-42” value in the data set with M17 Neuroblastoma cells (80 μM peptide) is given as 20%; with M17 Neuroblastoma cells (200 μM peptide), 30%. The “reduction of human Aβ1-42's H2O2 production” value on human Aβ1-42 [4] is on record as “around 30%”.

Consider “Ac-Thr-Arg-Thr-Pro-Gln-Met-Leu-Arg-Lys-NH2 (Ac-TRTPQMLRK-NH2) [MP5]”, for which the “cell viability following treatment with human Aβ42” value in the data set with human Aβ42 was “significantly increased”. In the data set with Aβ, the “inhibition of Aβ oligomer formation” value is reported as “most potent”.

For the substance “Ac-Arg-Thr-Pro-Gln-Met-Leu-Lys-NH2 (Ac-RTPQMLK-NH2) [MP4]”, the “inhibition of Aβ oligomer formation” value with Aβ is recorded as “most potent”.

Regarding “Ac-DArg-DLys-DLeu-DMet-DGln-DPro-DThr-DArg-DAsn-NH2 (Ac-[dR][dK][dL][dM][dQ][dP][dT][dR][dN]-NH2; SMILES CSCC[C@@H](NC(=O)[C@@H](CC(C)C)NC(=O)[C@@H](CCCCN)NC(=O)[C@@H](CCCNC(=N)N)NC(C)=O)C(=O)N[C@H](CCC(N)=O)C(=O)N1CCC[C@@H]1C(=O)N[C@@H](C(=O)N[C@H](CCCNC(=N)N)C(=O)N[C@H](CC(N)=O)C(N)=O)[C@H](C)O) [MP6]”, the “cell viability following treatment with human Aβ42” value in the data set with human Aβ42 is “significantly increased”.

With “human Aβ1-42: beta amyloid peptide used as toxic agent in the cell viability assays [reference compound]”, the “reduction of cell viability” value with M17 Neuroblastoma cells (human Aβ1-42 40 μM alone, 4 days) is ≤ 35%.

The values are drawn from patent publication US8492341B2, “Amyloid-β binding peptides” (Alzyme Pty Ltd., priority 2006, dated 2013).
